Assay results taken from patent US7674807B2, “Heterocycle-substituted n-phenyl-phthalamide derivatives, related compounds and their use as insecticides” (Bayer CropScience AG, priority 2004, dated 2010).

Legend:
[1] = test system: larva of Spodoptera litura; assay: Test against larva of Spodoptera litura (leaf dip, sweet potato leaves); format: in vivo; settings: 20 ppm concentration of the active component; third instar larvae; counted after 7 days; 25° C.
Experimental: Preparation of Test Solution:
In order to make an appropriate formulation of an active compound, 1 part by weight of the active compound was mixed with the above-mentioned amount of solvent containing the above-mentioned amount of emulsifier and the mixture was diluted with water to a prescribed concentration.
Leaves of sweet potato were soaked in the test solution diluted to a prescribed concentration with water, dried in the air and put in a dish of 9 cm diameter.
10 larvae of Spodoptera litura at the third instar were placed on the leaves and kept in a room at the constant temperature of 25° C. After 2 and 4 days further leaves of sweet potato were added and after 7 days the number of dead larvae was counted and the rate of death was calculated.
In this test the results of 2 dishes at 1 section were averaged.

[2] = test system: larva of Cnaphalocrocis medinalis Guenee; assay: Test against larva of Cnaphalocrocis medinalis Guenee (sprayed paddy rice foliage); format: in vivo; settings: 20 ppm concentration of the active component; second instar larvae; counted after 7 days; 25° C.
Experimental: Paddy rice (variety: Tamanishiki) planted in a pot was treated by spraying 50 ml per pot of the diluted aqueous solution of the prescribed concentration of the active compound prepared in the same manner as in the above-mentioned Biological Test Example 1. After the treated rice plant was dried in the air, their foliage part was cut in 4-5 cm length, which were put in a dish with 9 cm diameter with a sheet of filter paper and 2 ml of water. Five larvae of Cnaphalocrocis medinalis Guenee at the second instar were put in the dish that was placed in a room at the constant temperature of 25° C. After 2 and 4 days, each rest (each ⅓ amount) of foliage parts of rice plant were cut in the same manner and added to the dish. After 7 days the number of dead larvae was counted and the rate of death was calculated. In this test the results of 2 dishes at 1 section were averaged.

SMILES | controlling effect, rate of death [1] | controlling effect, rate of death [2]
CSCC(C)(C)NC(=O)c1c(Br)cccc1C(=O)Nc1ccc(Cn2nc(C(F)(F)F)cc2C(F)(F)F)cc1C [compound 45] | 100% | 100%
Cc1cc(Cn2nc(C(F)(F)F)cc2C(F)(F)F)ccc1NC(=O)c1cccc(Br)c1C(=O)NC(C)(C)CS(C)(=O)=O [compound 47] | 100% | 100%
CSCC(C)NC(=O)c1c(Br)cccc1C(=O)Nc1ccc(Cn2nc(C(F)(F)F)cc2C(F)(F)F)cc1C (stereo not drawn) [compound 49] | 100% | 100%
Cc1cc(Cn2nc(C(F)(F)F)cc2C(F)(F)F)ccc1NC(=O)c1cccc(Br)c1C(=O)NC(C)CS(C)(=O)=O (stereo not drawn) [compound 53] | 100% | 100%
Cc1cc(Cn2nc(C(F)(F)F)cc2C(F)(F)F)ccc1NC(=O)c1cccc(I)c1C(=O)NC(C)C [compound 81] | 100% | 100%
CSCC(C)(C)NC(=O)c1c(I)cccc1C(=O)Nc1ccc(Cn2nc(C(F)(F)F)cc2C(F)(F)F)cc1C [compound 82, N^1-[4-(3,5-bistrifluoromethylpyrazol-1-ylmethyl)-2-methylphenyl]-N^2-(1,1-dimethyl-2-methylsulfanylethyl)-3-iodophthalamide] | 100% | 100%
Cc1cc(Cn2nc(C(F)(F)F)cc2C(F)(F)F)ccc1NC(=O)c1cccc(I)c1C(=O)NC(C)(C)C[S+](C)[O-] (stereo not drawn) [compound 83, N^1-{4-[3,5-bis(trifluoromethyl)-1H-pyrazol-1-ylmethyl]-2-methylphenyl}-N^2-(2-methanesulfinyl-1,1-dimethylethyl)-3-iodophthalamide] | 100% | 100%
Cc1cc(Cn2nc(C(F)(F)F)cc2C(F)(F)F)ccc1NC(=O)c1cccc(I)c1C(=O)NC(C)(C)CS(C)(=O)=O [compound 84, N^1-{4-[3,5-bis(trifluoromethyl)-1H-pyrazol-1-ylmethyl]-2-methylphenyl}-3-iodo-N^2-(2-methanesulfonyl-1,1-dimethylethyl)phthalamide] | 100% | 100%
CSCC(C)NC(=O)c1c(I)cccc1C(=O)Nc1ccc(Cn2nc(C(F)(F)F)cc2C(F)(F)F)cc1C (stereo not drawn) [compound 86] | 100% | 100%
Cc1cc(Cn2nc(C(F)(F)F)cc2C(F)(F)F)ccc1NC(=O)c1cccc(I)c1C(=O)NC(C)CS(C)(=O)=O (stereo not drawn) [compound 90] | 100% | 100%
CCSCC(C)NC(=O)c1c(I)cccc1C(=O)Nc1ccc(Cn2nc(C(F)(F)F)cc2C(F)(F)F)cc1C (stereo not drawn) [compound 91] | 100% | 100%
CCS(=O)(=O)CC(C)NC(=O)c1c(I)cccc1C(=O)Nc1ccc(Cn2nc(C(F)(F)F)cc2C(F)(F)F)cc1C (stereo not drawn) [compound 93] | 100% | 100%
CSCC(C)NC(=O)c1c(OS(C)(=O)=O)cccc1C(=O)Nc1ccc(Cn2nc(C(F)(F)F)cc2C(F)(F)F)cc1C (stereo not drawn) [compound 128] | 100% | 100%
Cc1cc(Cn2nc(C(F)(F)F)cc2C(F)(F)F)ccc1NC(=O)c1cccc(OS(C)(=O)=O)c1C(=O)NC(C)CS(C)(=O)=O (stereo not drawn) [compound 132] | 100% | 100%
CSCC(C)(C)NC(=O)c1c(Cl)cccc1C(=O)Nc1ccc(Cn2nc(C(F)(F)F)nc2C(F)(F)F)cc1C [compound 137] | 100% | 100%
Cc1cc(Cn2nc(C(F)(F)F)nc2C(F)(F)F)ccc1NC(=O)c1cccc(Cl)c1C(=O)NC(C)(C)C[S+](C)[O-] (stereo not drawn) [compound 138] | 100% | 100%
Cc1cc(Cn2nc(C(F)(F)F)nc2C(F)(F)F)ccc1NC(=O)c1cccc(Cl)c1C(=O)NC(C)(C)CS(C)(=O)=O [compound 139] | 100% | 100%
Cc1cc(Cn2nc(C(F)(F)F)nc2C(F)(F)F)ccc1NC(=O)c1cccc(Cl)c1C(=O)NC(C)C[S+](C)[O-] (stereo not drawn) [compound 142] | 100% | 100%
Cc1cc(Cn2nc(C(F)(F)F)nc2C(F)(F)F)ccc1NC(=O)c1cccc(Cl)c1C(=O)NC(C)C[S+](C)[O-] (stereo not drawn) [compound 143] | 100% | 100%
Cc1cc(Cn2nc(C(F)(F)F)nc2C(F)(F)F)ccc1NC(=O)c1cccc(Cl)c1C(=O)NC(C)CS(C)(=O)=O (stereo not drawn) [compound 145] | 100% | 100%

SMILES | controlling effect, rate of death [1] | controlling effect, rate of death [2]
CSCC(C)(C)NC(=O)c1c(Cl)cccc1C(=O)Nc1ccc(Cn2nc(C(F)(F)C(F)(F)F)nc2C(F)(F)F)cc1C [compound 149] | 100% | 100%
Cc1cc(Cn2nc(C(F)(F)C(F)(F)F)nc2C(F)(F)F)ccc1NC(=O)c1cccc(Cl)c1C(=O)NC(C)(C)C[S+](C)[O-] (stereo not drawn) [compound 150] | 100% | 100%
CSCC(C)NC(=O)c1c(Cl)cccc1C(=O)Nc1ccc(Cn2nc(C(F)(F)C(F)(F)F)nc2C(F)(F)F)cc1C (stereo not drawn) [compound 153] | 100% | 100%
Cc1cc(Cn2nc(C(F)(F)C(F)(F)F)nc2C(F)(F)F)ccc1NC(=O)c1cccc(Cl)c1C(=O)NC(C)C[S+](C)[O-] (stereo not drawn) [compound 155] | 100% | 100%
Cc1cc(Cn2nc(C(F)(F)C(F)(F)F)nc2C(F)(F)F)ccc1NC(=O)c1cccc(Cl)c1C(=O)NC(C)CS(C)(=O)=O (stereo not drawn) [compound 157] | 100% | 100%
CSCC(C)NC(=O)c1c(Br)cccc1C(=O)Nc1ccc(Cn2nc(C(F)(F)F)nc2C(F)(F)F)cc1C (stereo not drawn) [compound 177] | 100% | 100%
Cc1cc(Cn2nc(C(F)(F)F)nc2C(F)(F)F)ccc1NC(=O)c1cccc(Br)c1C(=O)NC(C)CS(C)(=O)=O (stereo not drawn) [compound 182] | 100% | 100%
Cc1cc(Cn2nc(C(F)(F)F)nc2C(F)(F)F)ccc1NC(=O)c1cccc(I)c1C(=O)NC(C)C [compound 210] | 100% | 100%
Cc1cc(Cn2nc(C(F)(F)F)nc2C(F)(F)F)ccc1NC(=O)c1cccc(I)c1C(=O)NC(C)(C)C[S+](C)[O-] (stereo not drawn) [compound 212] | 100% | 100%
Cc1cc(Cn2nc(C(F)(F)F)nc2C(F)(F)F)ccc1NC(=O)c1cccc(I)c1C(=O)NC(C)C[S+](C)[O-] (stereo not drawn) [compound 216] | 100% | 100%
Cc1cc(Cn2nc(C(F)(F)F)nc2C(F)(F)F)ccc1NC(=O)c1cccc(I)c1C(=O)NC(C)C[S+](C)[O-] (stereo not drawn) [compound 217] | 100% | 100%
Cc1cc(Cn2nc(C(F)(F)F)nc2C(F)(F)F)ccc1NC(=O)c1cccc(I)c1C(=O)NC(C)CS(C)(=O)=O (stereo not drawn) [compound 219] | 100% | 100%
CC[S+]([O-])CC(C)NC(=O)c1c(I)cccc1C(=O)Nc1ccc(Cn2nc(C(F)(F)F)nc2C(F)(F)F)cc1C (stereo not drawn) [compound 221] | 100% | 100%
CSCC(C)NC(=O)c1c(I)cccc1C(=O)Nc1ccc(Cn2nc(C(F)(F)C(F)(F)F)nc2C(F)(F)F)cc1C (stereo not drawn) [compound 227] | 100% | 100%
Cc1cc(Cn2nc(C(F)(F)C(F)(F)F)nc2C(F)(F)F)ccc1NC(=O)c1cccc(I)c1C(=O)NC(C)C[S+](C)[O-] (stereo not drawn) [compound 229] | 100% | 100%
Cc1cc(Cn2nc(C(F)(F)C(F)(F)F)nc2C(F)(F)F)ccc1NC(=O)c1cccc(I)c1C(=O)NC(C)CS(C)(=O)=O (stereo not drawn) [compound 230] | 100% | 100%
Cc1cc(Cn2nc(C(F)(F)C(F)(F)F)nc2C(F)(F)F)ccc1NC(=O)c1cccc(I)c1C(=O)NC(C)CS(C)(=O)=O (stereo not drawn) [compound 231] | 100% | 100%
CSCC(C)NC(=O)c1c(I)cccc1C(=O)Nc1ccc(Cn2nc(C(F)(F)F)nc2C(F)F)cc1C (stereo not drawn) [compound 238] | 100% | 100%
Cc1cc(Cn2nc(C(F)(F)F)nc2C(F)F)ccc1NC(=O)c1cccc(I)c1C(=O)NC(C)CS(C)(=O)=O (stereo not drawn) [compound 242] | 100% | 100%
